The record followed here is US20220105157A1, “Compositions and Methods for Promoting Angiogenesis in the Eye” (The Regents of the University of California, priority 2019, published 2022).

In series [1] the test system is choroid capillaries of NaIO3-treated mice. Nature of the series: Sodium iodate (NaIO3) model, choroid capillary recovery. The note with it: NaIO3 20 mg/kg i.v.; intravitreal LIF 50 ng, CT-1 different doses, OSM 10 ng; OCT-A. It is filed as in vivo, mouse. Here is the method: Eight-week-old C57BL/6J mice were anesthetized with ketamine/xylazine cocktail. Sterilized NaIO3 was administered as a single intravenous injection (20 mg/kg body weight) (28) (29). Control mice were injected with PBS. PBS, LIF (50 ng), CT-1 (different doses) or OSM (10 ng) was injected intravitreally in five-mice groups. Five, seven and nine days after injection, choroid capillaries were monitored by OCT-A system. 9 days after injection, mice were killed and eyes were harvested for H&E and immunofluorescent staining. Avascular area in choroid capillaries was analyzed using ImageJ.

The subject of series [2] is human retinal microvascular endothelial (HRME) cells. Briefly: HRME endothelial cell proliferation assay (alamar blue). The series is classed as cell-based. As for the experimental part: (§1) The bovine endothelial proliferation assays were performed essentially as previously described (63, 64). BCE (1×10^3 cells/well) or BRE (5×10^2 cells/well) cells were seeded in 96-well plates in the culture medium (DMEM-low glucose supplemented with 10% BCS, 2 mM glutamine and antibiotics) plus testing materials with a total volume of 200 μl per well. BAE cells were plated in 96-well plates at a density of 2×10^3 cells in the culture medium (DMEM-low glucose supplemented with 1% BCS and antibiotics) plus testing material with a total volume of 200 μl per well. HRME cells were seeded at a density of 1×10^3 cells/well in gelatin-coated 96-well plates in assay medium (DMEM-low glucose supplemented with 20% FBS and antibiotics) plus testing materials to make a total volume 200 μl per well. For assays involving antibodies or small-molecule inhibitors, inhibitors or vehicle controls were first added and then test materials were added one hour later. After 6 days (unless otherwise specified), cells were incubated with alamar blue for 4 h. Fluorescence was measured at 530 nm excitation wavelength and 590 nm emission wavelength. Each experiment was carried out in duplicate/triplicate and repeated at least three times.
(In general: The colour change of resazurin is a common sign of viable cells or microbes.)

The test system of series [3] is phosphorylation of STAT3, ERK and AKT in BAE cells. Nature of the series: Western blotting of LIF signaling in BAE cells. The series is classed as cell-based, bovine. The note with it: LIF treatment for 15 minutes. As for the experimental part:
(§2) BCE and BAE cells were cultured in growth medium overnight. Growth medium was removed and then cells were washed twice with PBS. Recombinant human LIF was added to cells for 15 minutes, following 3-hour incubation in the following medium: DMEM-low glucose supplemented with 10% BCS, 2 mM glutamine and antibiotics for BCE cells, and DMEM-low glucose supplemented with 1% BCS and antibiotics for BAE cells. […] Cells were then lysed with RIPA lysis buffer (Life Technologies, CAT #89901) plus protease and phosphatase inhibitor cocktail (ThermoFisher Scientific CAT #78440). Protein concentrations in cell lysates were measured with the BCA assay (ThermoFisher Scientific CAT #23227). Equal amount of proteins were subjected to electrophoresis in NuPAGE 4-12% Bis-Tris gels (ThermoFisher Scientific, CAT #NW04125BOX) and then transferred onto PVDF membranes. Membranes were blocked with 5% non-fat milk in TBST at room temperature for 1 hour, incubated with primary antibodies indicated below in TBST containing 0.5% non-fat milk at 4° C. overnight then with secondary HRP-conjugated antibodies (1:2000, GE Healthcare) at room temperature for 1 h. Signals were developed with SuperSignal™ West Pico PLUS Chemiluminescent Substrate (ThermoFisher Scientific). Primary antibodies used: anti-phospho-STAT3 (Cell Signaling, CAT #9131, 1:3000), anti-STAT3 (Cell Signaling, CAT #4904, 1:3000), anti-phospho-ERK (Cell Signaling, CAT #4376, 1:5000), anti-ERK (Cell Signaling, CAT #4695, 1:5000), anti-phospho-AKT Ser473 (Cell Signaling, CAT #4060, 1:2000), anti-AKT (Cell Signaling, CAT #4691, 1:2000) and HRP-conjugated anti-beta-actin (Sigma, CAT #AC-15, 1; 10000).
In general terms: Immunoblotting shows a protein as a band on a membrane.

The subject of the next series is BAE cells. Briefly: BrdU incorporation assay. The series is classed as cell-based, bovine. As to conditions: LIF 48 hours. Here is the method: BAE cells were plated at the density of 2×10^4 cells/well with 1 ml of culture medium (DMEM-low glucose plus 10% BCS) in a 12-well plate with a 18-mm poly-D-lysine-treated coverslip in each well, incubating at 37° C. overnight. After removal of culture medium, cells were incubated in 0.5 ml of DMEM-low glucose plus 1% BCS. LIF (10 ng/ml) and vehicle control (0.1% BSA in PBS) were added to the cells. Upon LIF treatment for 48 hours, cells were subjected to BrdU incorporation by adding 2.5 μl of 2 mM BrdU in DMSO to each well to a final concentration 10 μM and incubating for 4 hours. Then, cells are subjected to BrdU immunofluorescence staining using an antibody against BrdU conjugated with Fluor alexa-488 (Biolegend, CAT #364106, 1:400). Briefly, BrdU labeling medium was removed from the culture plates and cells were fixed with 3.7% formaldehyde in PBS at room temperature for 15 minutes. Cell DNAs were denatured with 1N HCl on ice for 10 minutes and 2N HCl at room temperature for 10 minutes following cell permeabilization with 0.1% Triton X-100 in PBS (PBST). […] Four fields were randomly selected for each sample and the BrdU-positive nuclei as well as total nuclei (DAPI-positive) were counted manually; the percentages of BrdU-positive cells were determined by dividing the numbers of BrdU-positive nuclei with the numbers of total nuclei. […]
On the technique in general: Dividing cells build labelled thymidine or BrdU into new DNA.

Series [4] deals with phosphorylation of STAT3, ERK and AKT in BCE cells. Briefly: Western blotting of LIF signaling in BCE cells. It is filed as cell-based, bovine. The note with it: LIF treatment for 15 minutes. Here is the method:
as §2

For series [5], the system named is bovine aortic endothelial (BAE) cells. Briefly: BAE endothelial cell proliferation assay (alamar blue). The series is classed as cell-based. As for the experimental part:
as §1

Series [6] concerns bovine retinal endothelial (BRE) cells. Briefly: BRE endothelial cell proliferation assay (alamar blue). It is filed as cell-based. As for the experimental part:
as §1

The test system of a further series is mouse retina. Nature of the series: Measurement of vascular leakage in retina (TRITC-dextran). As to conditions: mice, LIF 10 ng intravitreally. It is filed as in vivo. Here is the method: Recombinant human VEGF (100 ng) or LIF (10 ng) was injected into the vitreous (0.1% BSA PBS solution as vehicle control). TRITC-dextran (50 mg/ml, 100 ul) was then injected into the tail vein. Ten minute later, animals were sacrificed and eyes were enucleated. Retina flat mount was imaged under microscope (65).

Regarding “LIF: recombinant human leukemia inhibitory factor, a member of the IL-6 family of cytokines”, in series [1], the “avascular areas in choroid compared to PBS group” value was “reduced avascular areas”. For the same substance, in series [2] (LIF added to VEGF), the “effect on VEGF-stimulated growth of human retinal microvascular endothelial cells” value is given as “significantly enhanced VEGF-stimulated growth”. Also, in series [2] (LIF alone), the “mitogenic response in human retinal microvascular endothelial cells” value is recorded as “did not elicit a strong mitogenic response”. Besides, in series [3], the “phosphorylation of AKT” value is “led to phosphorylation”, the “phosphorylation of ERK (MAPK)” value is on record as “led to phosphorylation” and the “phosphorylation of STAT3” value is listed as “led to phosphorylation”. Moreover, in the series with BAE cells, the “BrdU incorporation compared to the vehicle control” value was “significantly reduced”. Further, in series [4], the AKT phosphorylation entry was “little effects”, the “phosphorylation of ERK” value is recorded as “elicited phosphorylation” and the “phosphorylation of STAT3” value was “elicited phosphorylation”. In addition, in series [5], the BAE cell growth entry was “growth inhibition”. In addition, the “mitogenic activity on BRE cells” value in series [6] is on record as “exerted mitogenic activity”. Further, the retinal microvascular leakage entry in the series with mouse retina is “does not induce retinal microvascular leakage”.
